Results reported in patent US20250304623A1, “PEPTIDES FOR INTRACELLULAR DELIVERY” (UNIVERSIDADE DE SANTIAGO DE COMPOSTELA, priority 2022, published 2025).
Starred links: 1 amine or outer side, 2 acyl side, 3 side chain; linkers in the order of their positions; H or OH if unused. Residues, ends and D or L forms follow the SMILES beside them. Groups on a side chain read outwards from the residue. *: point of attachment. Glutaryl = O=C(CCCC(=O)[*:2])[*:1]; X1 = CCCC/C=C\CCCCCCCC=NN*; NHNH2 = NN*

Assays:
mice = assay: In vivo FLuc mRNA delivery, i.v. injection, concentrated formulation, BLI; settings: 125 μM
Experimental: Amphiphile stock solutions were prepared in DMSO as described above, but in this case, the amphiphile was contacted directly with the solution of nucleic acid cargo in a suitable buffer, such as PBS, or phosphate buffer enriched with inorganic salts, without any predilution step of the amphiphile's DMSO solution in a suitable aqueous buffer. Delivery efficiency of mRNA by i.v. administration route was determined by bioluminescence imaging (BLI). […] Luciferase expression was evaluated over 24 h, starting at 1 h after the administration of mRNA complexes. After that time, mice were sacrificed, and each organ was analysed individually using bioluminescence imaging (BLI) for quantification of the expression. […] Transfection results with the optimal volume ratios (125 or 250 μM final amphiphile concentration) and expression quantification in organs for candidates 7.2 DO, 7.2 M, 9.2 DO and 9.2 M are presented in FIGS. 12A, 12B, 11A, 11B, 13A, 13B, 20A and 20B respectively.
FIGS. 19A and 19B show in vivo transfection experiments in mice using amphiphiles comprising peptide 13.2 with oleyl aldehyde (13.2 O). These figures show representative bioluminescence images of mice and the extracted organs following i.v. (intravenous) injection of FLuc mRNA/amphiphile 13.2 O complexes (125 and 250 μM of 13.2 O were used, as indicated) at different times (1 h, 4 h, 7 h and 24 h). […]

[1] = system: A549 cells expressing EGFP; assay: EGFP-targeting siRNA delivery (GFP silencing vs siMOCK), A549; assay type: cell-based; settings: A549 cells
Experimental: To generate an EGFP expressing HeLa cell line, HeLa cells were transfected with EGFP pDNA (pEGFP-C1, Clontech) and stable transfectants were selected with 400 μg/mL of G-418 (Millipore). Green clones were selected by epifluorescence microscopy and tested for EGFP expression stability through several passages. […] All other EGFP-expressing cell lines were obtained in a similar way from parent non-EGFP-expressing cell lines.
Cells expressing EGFP were seeded in a 96 well plate the day before the experiment at a concentration of 50,000 cell/mL (100 μL/w) in DMEM+10% FBS+1% Gln-Abt. For robotic library screening, the delivery of an EGFP-targeting siRNA (EGFP: enhanced green fluorescent protein, Ambion® Silencer® GFP Positive Control siRNA (siGFP) (AM4626)) in six different cell lines expressing EGFP was performed. […] The mixture was shaken for 30 min at room temperature (rt) before the addition to the cells. The cell medium was aspirated, and cells were washed twice with PBS. Finally, 50 μL of the solution of siRNA/amphiphile complexes were added to the cells and incubated for 4 h. After transfection, the medium was replaced by 100 μL of fresh DMEM supplemented with 10% FBS. The fluorescence knockdown was quantified after 72 h in a plate reader, by comparison with cells transfected with a non-targeting siRNA control (siMOCK, Silencer™ Negative Control No. 1 siRNA (siMOCK) (AM4611)). EGFP knockdown was compared with Lipofectamine® RNAiMAX silencing efficiency (30-60% depending on cell line, defined with a numeric value in the below tables). All experiments were done in triplicate.
(§1) Tables 1-7: RLuc (pDNA) or EGFP (mRNA) expression levels were normalized to Lipofectamine reagents (value=1) and expressed as fold-times signal increase. In the case of siRNA, the siRNA treated cells fluorescence was compared with siMOCK control fluorescence, while Cas9-RNP mediated knockout was measured against the fluorescence of untreated cells. In both siRNA and Cas9-RNP, values are expressed as % fluorescence reduction. Amphiphile concentration was 5 μM in all cases. All experiments were performed in triplicate.
Tables 20-25 show the mean (triplicates) percentage of GFP-silencing, accounted by fluorescence intensity decrease relative to a non-targeting siRNA (siMOCK) control, measured after the transfection of siRNA by different amphiphiles at different concentrations in a variety of cell lines. Background values, accounted by untreated control cells, were subtracted for processing.

Hela cells = assay: EGFP mRNA delivery, robotic library screening, HeLa; assay type: cell-based
Experimental: Cells were seeded in a 96 well plate the day before the experiment at a concentration of 50,000 cell/mL (100 μL/w) in DMEM+10% FBS+1% Gln-Abt. For robotic library screening, the delivery of EGFP-mRNA (from TriLink, fully substituted with 5-methoxyuridine, capped and polyadenylated; TriLink, CleanCap® EGFP mRNA (5moU), ref. L-7201) in six different cell lines was performed. Amphiphilic molecule stock solutions were prepared in DMSO as described above and diluted in DMEM to afford a range of concentrations. The solutions of EGFP-mRNA/amphiphilic molecule complexes were freshly prepared prior to the transfection experiments. 35 μL of the corresponding amphiphile were added to 10 μL of a solution of EGFP-mRNA at 10 ng/μL in DMEM. The mixture was shaken for 30 min at room temperature before the addition to the cells. The cell medium was aspirated, and cells were washed with PBS twice. Cells were covered with 39 μL of DMEM and 11 μL of the complex's solution were added to the cells and incubated for 4 h (final concentration of peptide=2.5, 5 and 10 μM; final concentration of EGFP-mRNA=25 ng/well). After the incubation, the medium was replaced by 100 μL of fresh DMEM supplemented with 10% FBS. The total EGFP fluorescence was quantified after 72 h in a well plate reader. Amphiphile transfection efficiency was compared and normalized to Lipofectamine® MessengerMax efficiency (value of 1 in Tables 1-5 and 7; double underlined numbers). All experiments were done in triplicate.
as §1
Tables 14-19 show the mean (triplicates) fluorescence intensity measured after the transfection of EGFP mRNA by different amphiphiles at different concentrations in a variety of cell lines. Background fluorescence values, accounted by untreated control cells, were subtracted for processing.

Row | Compound | effect of DMSO:aqueous volume ratio on bioluminescence (mice; ratios 1:100, 1:200, 1:400) | biodistribution of bioluminescence (mice; concentrated formulation, 5 μg mRNA/mouse) | percentage of GFP-silencing relative to siMOCK ([1]; Dodecanal, 5 μM) | percentage of GFP-silencing relative to siMOCK ([1]; Dodecanal, 10 μM) | percentage of GFP-silencing relative to siMOCK ([1]; Myristoleyl, 5 μM) | percentage of GFP-silencing relative to siMOCK ([1]; Myristoleyl, 10 μM) | percentage of GFP-silencing relative to siMOCK ([1]; Myristoleyl, 15 μM) | mean fluorescence intensity (EGFP mRNA) (Hela cells; HeLa, Dodecanal, 5 μM) | mean fluorescence intensity (EGFP mRNA) (Hela cells; HeLa, Myristoleyl, 2.5 μM) | mean fluorescence intensity (EGFP mRNA) (Hela cells; HeLa, Petroselinyl, 10 μM) | mean fluorescence intensity (EGFP mRNA) (Hela cells; Hela, Dodecanal, 10 μM) | mean fluorescence intensity (EGFP mRNA) (Hela cells; Hela, Myristoleyl, 5 μM) | mean fluorescence intensity (EGFP mRNA) (Hela cells; Hela, Myristoleyl, 10 μM) | mean fluorescence intensity (EGFP mRNA) (Hela cells; Hela, Petroselinyl, 5 μM)
1 | CCCC/C=C\CCCCCCCC=NNC(=O)CCCC(=O)NCCCC[C@H](NC(=O)[C@H](CCCCNC(=O)CCCC(=O)NN=CCCCCCCC/C=C\CCCC)NC(=O)[C@H](CCCNC(=N)N)NC(=O)[C@H](Cc1c[nH]cn1)NC(=O)[C@H](CCCCNC(=O)CCCC(=O)NN=CCCCCCCC/C=C\CCCC)NC(=O)[C@H](CCCNC(=N)N)NC(C)=O)C(=O)N[C@@H](Cc1c[nH]cn1)C(N)=O [7.3(Leu-His) M] (Ac-RK([Glutaryl-X1])HRK([Glutaryl-X1])K([Glutaryl-X1])H-NH2) | 1:100 (DMSO:aqueous) ratios showed the highest bioluminescence values, with up to one order of magnitude luminescence enhancement as compared to 1:200 ratio | a preferred spleen biodistribution of the bioluminescence was observed |  |  |  |  |  |  |  |  |  |  |  | 
2 | Ac-RRLK*RLLRRLK*RLK*RRL-NH2 (Ac-RRLK(NHNH2)RLLRRLK(NHNH2)RLK(NHNH2)RRL-NH2; not fully specified; printed as Ac-RRLK*RLLRRLK*RLK*RRL-NH2; also: K*4,K*11,K*14: native or modified lysine (ε-amide to a linker)) [Peptide 17.3] |  |  | 25% | 4% | 24% | 8% | 6% | 43 | 64 | −16 | 52 | 6 | 76 | 25
